Experimental data as given in patent US9427415B2, “Methods and compositions for modifying sensorial perception” (The Procter & Gamble Company, priority 2014, dated 2016).
Where two headings read alike, the source gives them in different places.

What was measured:
[1] = target: T1, human TRPA1 (Homo sapiens, UniProt O75762, K186N/R3C/R58T); assay: Intracellular calcium (Fluo-4, FLIPR) activation of TRPA1 cells by GRAS compounds; type: cell-based; conditions: relative to AITC 30 μM; for activation at 1000 µM / A1 activation, % of agonist value: 1 mM; for activation at 1000 µM / activation at 100 µM: read-out: A1 activation, % of agonist value;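 as to all read-outs here: TRPA1-expressing cells, fluorescence read on a FLIPR Tetra (ex 488 nm, em 514 nm) every 2 s for 10 min after compound addition, baseline subtracted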
T1 construct: expressed in transfected cells; pcDNA3 control cells
T1 sequence (O75762 whole entry R3C/R58T/K186N): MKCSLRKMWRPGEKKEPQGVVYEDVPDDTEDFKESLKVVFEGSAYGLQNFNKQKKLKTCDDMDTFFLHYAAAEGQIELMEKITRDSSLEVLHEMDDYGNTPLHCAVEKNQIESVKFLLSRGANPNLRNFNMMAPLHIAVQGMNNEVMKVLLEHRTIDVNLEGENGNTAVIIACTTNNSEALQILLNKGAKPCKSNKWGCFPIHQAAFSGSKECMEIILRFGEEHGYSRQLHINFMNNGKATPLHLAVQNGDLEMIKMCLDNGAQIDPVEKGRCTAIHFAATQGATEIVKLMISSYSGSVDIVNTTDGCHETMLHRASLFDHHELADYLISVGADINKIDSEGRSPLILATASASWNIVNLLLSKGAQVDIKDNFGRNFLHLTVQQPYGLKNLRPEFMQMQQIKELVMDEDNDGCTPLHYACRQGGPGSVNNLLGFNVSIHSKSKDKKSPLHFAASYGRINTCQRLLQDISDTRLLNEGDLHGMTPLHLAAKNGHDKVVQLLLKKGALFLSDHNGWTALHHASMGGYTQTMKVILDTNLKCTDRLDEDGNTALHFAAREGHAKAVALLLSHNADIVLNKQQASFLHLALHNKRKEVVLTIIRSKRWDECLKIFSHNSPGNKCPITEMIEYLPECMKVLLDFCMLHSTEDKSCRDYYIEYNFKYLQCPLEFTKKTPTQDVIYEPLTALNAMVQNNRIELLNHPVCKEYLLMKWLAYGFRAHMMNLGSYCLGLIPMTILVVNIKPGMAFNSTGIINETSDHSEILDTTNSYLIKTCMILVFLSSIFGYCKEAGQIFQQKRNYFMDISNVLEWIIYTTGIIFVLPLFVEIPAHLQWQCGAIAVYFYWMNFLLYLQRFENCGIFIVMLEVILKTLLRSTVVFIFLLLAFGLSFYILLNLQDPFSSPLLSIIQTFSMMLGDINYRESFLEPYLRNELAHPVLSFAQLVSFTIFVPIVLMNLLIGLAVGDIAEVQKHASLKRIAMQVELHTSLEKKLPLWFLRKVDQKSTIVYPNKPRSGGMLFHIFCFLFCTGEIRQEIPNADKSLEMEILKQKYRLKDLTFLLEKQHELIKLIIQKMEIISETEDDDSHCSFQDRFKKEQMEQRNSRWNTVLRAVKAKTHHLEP

[2] = system: TRPA1V1; assay: Intracellular calcium (Fluo-4, FLIPR) activation of TRPA1V1 cells (co-expressing TRPA1 and TRPV1) by GRAS compounds; type: cell-based, human; conditions: relative to AITC 30 μM;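 also: HEK293 cells co-expressing TRPA1 and TRPV1, fluorescence read at 488/514 nm after baseline subtraction, recorded every 2 s over 10 min, ionomycin 10 µM and buffer as controls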

CCOC(=O)c1ccccc1O [Ethyl salicylate]
activation at 1000 µM ([1]; Table 1(d)): 41%
A1V1 activation, % of agonist value ([2]; Table 1(d), 1 mM): 28%

CCOc1cc(C2OCC(C)O2)ccc1O (stereo not drawn) [Ethyl vanillin propylene glycol acetal]
A1 activation, % of agonist value ([1]; Table 1(c)): 66.41%
A1V1 activation, % of agonist value ([2]; Table 1(c), 1 mM): 72.64%

C=CC(=O)CC [Ethyl vinyl ketone]
activation at 1000 µM ([1]; Table 1(d)): 79.5%
A1V1 activation, % of agonist value ([2]; Table 1(d), 1 mM): 40.61%

C=CCc1ccc(O)c(OC)c1 [Eugenol]
activation at 1000 µM ([1]; Table 1(c)): 79%
A1V1 activation, % of agonist value ([2]; Table 1(c), 1 mM): 91.29%

C=CCc1ccc(OC(C)=O)c(OC)c1 [Eugenyl acetate]
activation at 1000 µM ([1]; Table 1(c)): 75.4%
A1V1 activation, % of agonist value ([2]; Table 1(c), 1 mM): 83.94%

C=CCc1ccc(OC(=O)CC(C)C)c(OC)c1 [Eugenyl isovalerate]
activation at 1000 µM ([1]; Table 1(e)): 59.7%
A1V1 activation, % of agonist value ([2]; Table 1(e), 1 mM): 79.29%

c1ccc(CCCC2CCCO2)cc1 (stereo not drawn) [Furan, tetrahydro-2-(3-phenylpropyl)-]
activation at 1000 µM ([1]; Table 1(e)): 26%
A1V1 activation, % of agonist value ([2]; Table 1(e), 1 mM): 72.09%

CC(=O)OCc1ccco1 [Furfuryl acetate]
activation at 1000 µM ([1]; Table 1(d)): 120%
A1V1 activation, % of agonist value ([2]; Table 1(d), 1 mM): 91.3%

CC(=O)SCc1ccco1 [Furfurylthiol acetate]
A1 activation, % of agonist value ([1]; Table 1(d)): 75.5%
A1V1 activation, % of agonist value ([2]; Table 1(d), 1 mM): 60%

CCCCCCOC(=O)CCC [Hexyl butyrate]
activation at 1000 µM ([1]; Table 1(e)): 43.2%
A1V1 activation, % of agonist value ([2]; Table 1(e), 1 mM): 55.89%

CCCCCCOC(=O)c1cccnc1 [Hexyl nicotinate]
activation at 1000 µM ([1]; Table 1(d)): 72.9%
A1V1 activation, % of agonist value ([2]; Table 1(d), 1 mM): 54.4%

CC(=O)OCCC(C)C [Isoamyl acetate]
activation at 1000 µM ([1]; Table 1(c)): 49.6%
A1V1 activation, % of agonist value ([2]; Table 1(c), 1 mM): 61.80%

CNc1ccccc1C(=O)OCC(C)C [Isobutyl N-methyl anthranilate]
A1 activation, % of agonist value ([1]; Table 1(d)): 59.73%
A1V1 activation, % of agonist value ([2]; Table 1(d), 1 mM): 36.7%

CC=Cc1ccc(OC(C)=O)c(OC)c1 [Isoeugenyl acetate]
activation at 1000 µM ([1]; Table 1(c)): 57.6%
A1V1 activation, % of agonist value ([2]; Table 1(c), 1 mM): 68.34%

CC=Cc1ccc(OC(=O)Cc2ccccc2)c(OC)c1 [Isoeugenyl phenylacetate]
activation at 1000 µM ([1]; Table 1(c)): 59.1%
A1V1 activation, % of agonist value ([2]; Table 1(c), 1 mM): 58.40%

CC(C)N=C=S [Isopropyl isothiocyanate]
activation at 1000 µM ([1]; Table 1(e)): 41.8%
A1V1 activation, % of agonist value ([2]; Table 1(e), 1 mM): 71.6%

CC(C)OC(=O)Cc1ccccc1 [Isopropyl phenylacetate]
activation at 1000 µM ([1]; Table 1(d)): 80.2%
A1V1 activation, % of agonist value ([2]; Table 1(d), 1 mM): 60.9%

C=CCCCN=C=S [Isothiocyanic acid 4-penten-1-yl ester]
activation at 100 µM ([1]; Table 1(c)): 51.6%
activation at 1000 µM ([1]; Table 1(e)): 62.2%
A1V1 activation, % of agonist value ([2]; Table 1(c), 100 μM (*)): 47.3%
A1V1 activation, % of agonist value ([2]; Table 1(e), 1 mM): 74.8%

CC(=O)O[C@@H]1C[C@H](C)CC[C@H]1C(C)C [L-Menthyl acetate]
A1 activation, % of agonist value ([1]; Table 1(e)): 44.88%
A1V1 activation, % of agonist value ([2]; Table 1(e), 1 mM): 60.47%

C=C(C)[C@@H]1CC=C(C=O)CC1 [L-Perillaldehyde]
A1 activation, % of agonist value ([1]; Table 1(c)): 127.7%
A1V1 activation, % of agonist value ([2]; Table 1(c), 1 mM): 138.2%

CC1=CC(=O)[C@@H](C(C)C)CC1 [L-Piperitone]
A1 activation, % of agonist value ([1]; Table 1(e)): 45%
A1V1 activation, % of agonist value ([2]; Table 1(e), 1 mM): 68.40%

C=CC(C)(O)CCC=C(C)C (stereo not drawn) [Linalool]
activation at 1000 µM ([1]; Table 1(d)): 52.6%
A1V1 activation, % of agonist value ([2]; Table 1(d), 1 mM): 20%

C=CC(C)(CCC=C(C)C)OC(=O)c1ccccc1 (stereo not drawn) [Linalyl benzoate]
activation at 100 µM ([1]; Table 1(c)): 44.4%
A1V1 activation, % of agonist value ([2]; Table 1(c), 100 μM (*)): 55.3%

CCC(=O)Oc1c(C)occc1=O [Maltol propionate]
A1 activation, % of agonist value ([1]; Table 1(c)): 85.04%
A1V1 activation, % of agonist value ([2]; Table 1(c), 1 mM): 81.97%

CC(C)=CCCC(C)C=O (stereo not drawn) [Melonal]
A1 activation, % of agonist value ([1]; Table 1(c)): 52%
A1V1 activation, % of agonist value ([2]; Table 1(c), 1 mM): 57%

COC(=O)c1ccccc1OC [Methyl 2-methoxybenzoate]
activation at 1000 µM ([1]; Table 1(c)): 71.2%
A1V1 activation, % of agonist value ([2]; Table 1(c), 1 mM): 74.68%

CSSc1ccoc1C [Methyl 2-methyl-3-furyl disulfide]
activation at 1000 µM ([1]; Table 1(c)): 52.6%
A1V1 activation, % of agonist value ([2]; Table 1(c), 1 mM): 52%

CCCCCCC#CC(=O)OC [Methyl 2-nonynoate]
activation at 1000 µM ([1]; Table 1(d)): 101%
A1V1 activation, % of agonist value ([2]; Table 1(d), 1 mM): 76.1%

COC(=O)CCCc1ccccc1 [Methyl 4-phenylbutyrate]
activation at 1000 µM ([1]; Table 1(c)): 58.4%
A1V1 activation, % of agonist value ([2]; Table 1(c), 1 mM): 50.30%

CNc1ccccc1C(=O)OC [Methyl N-methylanthranilate]
activation at 1000 µM ([1]; Table 1(c)): 83.6%
A1V1 activation, % of agonist value ([2]; Table 1(c), 1 mM): 86.81%

CCCCC/C=C\C/C=C\CCCCCCCC(=O)OC [Methyl linoleate]
activation at 1000 µM ([1]; Table 1(e)): 31%
A1V1 activation, % of agonist value ([2]; Table 1(e), 1 mM): 81.7%

COC(=O)c1ccccc1NC=O [Methyl o-formamidobenzoate]
activation at 1000 µM ([1]; Table 1(c)): 75.4%
A1V1 activation, % of agonist value ([2]; Table 1(c), 1 mM): 75.64%

COC(=O)c1ccc(OC)cc1 [Methyl p-anisate]
activation at 1000 µM ([1]; Table 1(c)): 57.5%
A1V1 activation, % of agonist value ([2]; Table 1(c), 1 mM): 66.24%

C/C=C/C=C/C(=O)OC [Methyl sorbate]
activation at 1000 µM ([1]; Table 1(c)): 76%
activation at 1000 µM ([1]; Table 1(e)): 46.4%
A1V1 activation, % of agonist value ([2]; Table 1(c), 1 mM): 81.15%
A1V1 activation, % of agonist value ([2]; Table 1(e), 1 mM): 83.3%
